# Experimental data reported in patent publication EP0221208B1, “Hair growth promoting compositions” (MEIJI SEIKA KAISHA LTD., priority 1985, dated 1987).
# Test system: Cynomolgus monkeys (Crab-eating macaques)
# Experiment: Increase in temperature of the true skin after application to the skin surface (Test No. 2, net effect TE)
# Type: in vivo
# Settings: Test (ii); ester as penetration agent at 0.5% (w/v) or more in gel-like tonic formulation containing Substance MH-548
# Procedure: For the purpose of confirming whether Substance P or Substance P-related peptide of the formula (II) is actually effective to increase the blood flow in the capillary blood vessels at a local area of the skin, we have conducted some experiments where the hair growth promoting formulation of this invention was applied to a local skin surface of monkies, and an increase in the temperature of the underlying true skin tissue below the local skin surface was measured, which should be considered to be invoked by such increase in the local blood flow at the local skin site owing to the vasodilating activity of Substance P or Substance P-related peptide of the formula (II).
# Cynomolgus monkeys (Crab-eating macaques) (female, body weight 3.8-4.2 kg) were fixed each in a device for fixing the monkey. The hair was cut off from an area in the upper arms of each monkey. A probe of a thermometer for measurement of the temperature in a deep place (a thermometer commercially available from Telmo Co., Ltd., Japan) was sent into the hair-removed areas of each upper arm of the monkey, and the temperature in the true skin layer of the left and right upper arms of the monkey was measured before the administration of the active peptide for promoting the hair growth was made. […]
# Thus, the following parameters were evaluated. […]
smiles,measurement,value
CCOC(=O)CCCCCCCCC(=O)OCC [di-ethyl sebacate],effect of increasing the temperature in the true skin (TE),better effect than isopropyl myristate and di-isopropyl adipate
